# Assay results: PubChem BioAssay (NCI)
#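 48-hour exposure; five concentrations; linearly interpolated endpoints. TGI marks complete inhibition of growth.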
# Legend:
# Test in all cases: NCI-60 cell line screen, 48 h
# RPMI-8226 leukemia = tested on: RPMI-8226 leukemia
# KM20L2 colon = tested on: KM20L2 colon
# LXFL 529 NSCLC = tested on: LXFL 529 NSCLC
# SNB-75 CNS = tested on: SNB-75 CNS
# OVCAR-5 ovarian = tested on: OVCAR-5 ovarian
# SK-MEL-2 melanoma = tested on: SK-MEL-2 melanoma
# SNB-78 CNS = tested on: SNB-78 CNS
# TK-10 renal = tested on: TK-10 renal
# XF 498 CNS = tested on: XF 498 CNS
# DMS 114 small cell lung = tested on: DMS 114 small cell lung
# SF-539 CNS = tested on: SF-539 CNS
# DMS 273 small cell lung = tested on: DMS 273 small cell lung
# DLD-1 colon = tested on: DLD-1 colon
# HOP-18 NSCLC = tested on: HOP-18 NSCLC
# CAKI-1 renal = tested on: CAKI-1 renal
# K-562 leukemia = tested on: K-562 leukemia
# M19-MEL melanoma = tested on: M19-MEL melanoma
# HS 578T breast = tested on: HS 578T breast
# RXF-631 renal = tested on: RXF-631 renal
compound,measurement,setting,value
COc1ccccc1OCc1nnc(SCC(=O)O)n1-c1ccccc1,TGI,RPMI-8226 leukemia,> 100 µM
same,TGI,KM20L2 colon,> 100 µM
same,TGI,LXFL 529 NSCLC,> 100 µM
same,TGI,SNB-75 CNS,> 100 µM
same,TGI,OVCAR-5 ovarian,> 100 µM
same,TGI,SK-MEL-2 melanoma,> 100 µM
same,TGI,SNB-78 CNS,> 100 µM
same,TGI,TK-10 renal,> 100 µM
same,TGI,XF 498 CNS,> 100 µM
same,TGI,DMS 114 small cell lung,> 100 µM
same,TGI,SF-539 CNS,> 100 µM
same,TGI,DMS 273 small cell lung,> 100 µM
same,TGI,DLD-1 colon,> 100 µM
O=C(Cc1ccccc1)NN1C(=O)C(Cl)C1c1cc(Br)cc(Br)c1O (configuration not stated),TGI,HOP-18 NSCLC,31.4 µM
same,TGI,RPMI-8226 leukemia,29.1 µM
same,TGI,KM20L2 colon,> 100 µM
same,TGI,LXFL 529 NSCLC,50 µM
same,TGI,SNB-75 CNS,56.1 µM
same,TGI,OVCAR-5 ovarian,38.5 µM
same,TGI,SK-MEL-2 melanoma,36.6 µM
same,TGI,SNB-78 CNS,83 µM
same,TGI,TK-10 renal,> 100 µM
same,TGI,CAKI-1 renal,78.5 µM
same,TGI,XF 498 CNS,79.3 µM
same,TGI,DMS 114 small cell lung,17.8 µM
same,TGI,DMS 273 small cell lung,65.2 µM
same,TGI,K-562 leukemia,34.1 µM
same,TGI,M19-MEL melanoma,63.2 µM
same,TGI,DLD-1 colon,> 100 µM
C/C(CC(=O)Nc1ccc(C)cc1)=N\NC(N)=S,TGI,RPMI-8226 leukemia,> 100 µM
same,TGI,KM20L2 colon,> 100 µM
same,TGI,LXFL 529 NSCLC,> 100 µM
same,TGI,SNB-75 CNS,> 100 µM
same,TGI,OVCAR-5 ovarian,> 100 µM
same,TGI,SK-MEL-2 melanoma,> 100 µM
same,TGI,SNB-78 CNS,> 100 µM
same,TGI,TK-10 renal,> 100 µM
same,TGI,XF 498 CNS,> 100 µM
same,TGI,DMS 114 small cell lung,> 100 µM
same,TGI,SF-539 CNS,> 100 µM
same,TGI,K-562 leukemia,> 100 µM
same,TGI,M19-MEL melanoma,> 100 µM
same,TGI,DLD-1 colon,> 100 µM
CC1=CC(=O)c2cccc(O)c2C1=O,TGI,HOP-18 NSCLC,3.07 µM
same,TGI,RPMI-8226 leukemia,> 40.3 µM
same,TGI,KM20L2 colon,41.6 µM
same,TGI,LXFL 529 NSCLC,3.06 µM
same,TGI,HS 578T breast,7.13 µM
same,TGI,SNB-75 CNS,18 µM
same,TGI,OVCAR-5 ovarian,14.8 µM
same,TGI,SK-MEL-2 melanoma,4.57 µM
same,TGI,SNB-78 CNS,> 62.4 µM
same,TGI,TK-10 renal,5.05 µM
same,TGI,CAKI-1 renal,3.29 µM
same,TGI,XF 498 CNS,3.2 µM
same,TGI,DMS 114 small cell lung,7.89 µM
same,TGI,SF-539 CNS,12.3 µM
same,TGI,DMS 273 small cell lung,5.01 µM
same,TGI,K-562 leukemia,20 µM
same,TGI,M19-MEL melanoma,4.05 µM
CN1C(=O)NC2(O)c3ccccc3C(=O)C12O (configuration not stated),TGI,RPMI-8226 leukemia,> 100 µM
same,TGI,KM20L2 colon,> 100 µM
same,TGI,LXFL 529 NSCLC,> 100 µM
same,TGI,SNB-75 CNS,> 100 µM
same,TGI,OVCAR-5 ovarian,> 100 µM
same,TGI,SK-MEL-2 melanoma,> 100 µM
same,TGI,SNB-78 CNS,> 100 µM
same,TGI,TK-10 renal,> 100 µM
same,TGI,CAKI-1 renal,> 100 µM
same,TGI,XF 498 CNS,> 100 µM
same,TGI,DMS 114 small cell lung,> 100 µM
same,TGI,K-562 leukemia,> 100 µM
same,TGI,M19-MEL melanoma,> 100 µM
same,TGI,DLD-1 colon,> 100 µM
CCCCC/C=C1\CCC(CN2CCOCC2)C1=O (configuration not stated),TGI,HOP-18 NSCLC,27.5 µM
same,TGI,RXF-631 renal,44.9 µM
same,TGI,RPMI-8226 leukemia,3.02 µM
same,TGI,KM20L2 colon,19 µM
same,TGI,LXFL 529 NSCLC,16.6 µM
same,TGI,HS 578T breast,> 100 µM
same,TGI,SNB-75 CNS,33.5 µM
same,TGI,OVCAR-5 ovarian,35.9 µM
same,TGI,SK-MEL-2 melanoma,29.6 µM
same,TGI,SNB-78 CNS,47.4 µM
same,TGI,TK-10 renal,18.9 µM
same,TGI,CAKI-1 renal,9.79 µM
same,TGI,XF 498 CNS,31.8 µM
same,TGI,DMS 114 small cell lung,38.5 µM
same,TGI,SF-539 CNS,30 µM
same,TGI,K-562 leukemia,7 µM
same,TGI,M19-MEL melanoma,> 54.8 µM
same,TGI,DLD-1 colon,19.2 µM
O=c1[nH]nc2c3n[nH]c(=O)n3c3ccccc3n12,TGI,RXF-631 renal,> 100 µM
same,TGI,RPMI-8226 leukemia,> 100 µM
same,TGI,KM20L2 colon,> 100 µM
same,TGI,LXFL 529 NSCLC,> 100 µM
same,TGI,SNB-75 CNS,> 100 µM
same,TGI,OVCAR-5 ovarian,> 100 µM
same,TGI,SK-MEL-2 melanoma,> 100 µM
same,TGI,SNB-78 CNS,> 100 µM
same,TGI,TK-10 renal,> 100 µM
same,TGI,CAKI-1 renal,> 100 µM
same,TGI,XF 498 CNS,> 100 µM
same,TGI,DMS 114 small cell lung,> 100 µM
same,TGI,SF-539 CNS,> 100 µM
same,TGI,DMS 273 small cell lung,> 100 µM
same,TGI,K-562 leukemia,> 100 µM
same,TGI,M19-MEL melanoma,> 100 µM
same,TGI,DLD-1 colon,> 100 µM
O=C1c2ccccc2C(=O)N1C/C=N/NS(=O)(=O)c1ccc(Cl)cc1,TGI,RXF-631 renal,> 100 µM
same,TGI,RPMI-8226 leukemia,> 100 µM
same,TGI,KM20L2 colon,> 100 µM
same,TGI,LXFL 529 NSCLC,> 100 µM
same,TGI,SNB-75 CNS,> 100 µM
same,TGI,SK-MEL-2 melanoma,> 100 µM
same,TGI,TK-10 renal,> 100 µM
same,TGI,CAKI-1 renal,> 100 µM
same,TGI,XF 498 CNS,> 100 µM
same,TGI,DMS 114 small cell lung,> 100 µM
same,TGI,SF-539 CNS,> 100 µM
same,TGI,DMS 273 small cell lung,> 100 µM
same,TGI,K-562 leukemia,> 100 µM
same,TGI,M19-MEL melanoma,> 100 µM
same,TGI,DLD-1 colon,> 100 µM
CN1C(=O)c2cccc3c([N+](=O)[O-])ccc(c23)C1=O,TGI,HOP-18 NSCLC,30.8 µM
same,TGI,RXF-631 renal,17.6 µM
same,TGI,KM20L2 colon,19.5 µM
same,TGI,LXFL 529 NSCLC,3.89 µM
same,TGI,SNB-75 CNS,25.1 µM
same,TGI,OVCAR-5 ovarian,13.4 µM
same,TGI,SK-MEL-2 melanoma,24.8 µM
same,TGI,SNB-78 CNS,32 µM
same,TGI,TK-10 renal,15.6 µM
same,TGI,CAKI-1 renal,5.17 µM
same,TGI,DMS 114 small cell lung,11.2 µM
same,TGI,SF-539 CNS,26.2 µM
same,TGI,DMS 273 small cell lung,15.7 µM
same,TGI,K-562 leukemia,25 µM
same,TGI,M19-MEL melanoma,24.5 µM
same,TGI,DLD-1 colon,12.1 µM
CCC(=O)NCC1(c2c[nH]c3ccccc23)SCCS1,TGI,HOP-18 NSCLC,> 100 µM
same,TGI,RPMI-8226 leukemia,> 100 µM
same,TGI,KM20L2 colon,> 100 µM
same,TGI,LXFL 529 NSCLC,> 100 µM
same,TGI,SNB-75 CNS,> 100 µM
same,TGI,OVCAR-5 ovarian,> 100 µM
same,TGI,SK-MEL-2 melanoma,> 100 µM
same,TGI,SNB-78 CNS,> 100 µM
same,TGI,TK-10 renal,> 100 µM
same,TGI,CAKI-1 renal,> 100 µM
same,TGI,XF 498 CNS,> 100 µM
same,TGI,DMS 114 small cell lung,> 100 µM
same,TGI,SF-539 CNS,> 100 µM
same,TGI,DMS 273 small cell lung,> 100 µM
same,TGI,K-562 leukemia,> 100 µM
same,TGI,M19-MEL melanoma,> 100 µM
same,TGI,DLD-1 colon,> 100 µM
O=C1C=CC(=O)c2c(O)c(Nc3ccc(OC(F)(F)F)cc3)c(Cl)c(O)c21,TGI,RPMI-8226 leukemia,0.285 µM
same,TGI,HS 578T breast,10.8 µM
same,TGI,SNB-75 CNS,1.79 µM
same,TGI,OVCAR-5 ovarian,3.16 µM
same,TGI,SK-MEL-2 melanoma,3.48 µM
same,TGI,TK-10 renal,2.81 µM
same,TGI,CAKI-1 renal,2.96 µM
same,TGI,SF-539 CNS,3.36 µM
same,TGI,K-562 leukemia,4.36 µM
CC(C)C(OC(=O)c1cc(NC(=S)c2ccccc2)ccc1Cl)C(C)C,TGI,RPMI-8226 leukemia,> 73.5 µM
same,TGI,HS 578T breast,69 µM
same,TGI,SNB-75 CNS,59.1 µM
same,TGI,OVCAR-5 ovarian,> 100 µM
same,TGI,SK-MEL-2 melanoma,52.6 µM
same,TGI,TK-10 renal,> 86.3 µM
same,TGI,CAKI-1 renal,51.9 µM
same,TGI,SF-539 CNS,65.5 µM
same,TGI,K-562 leukemia,> 100 µM
CSc1ccc2c(cc1=O)C(NC(=O)c1cc(O)c(OC(=O)O)c(O)c1)CCc1cc(O)c(O)c(O)c1-2 (configuration not stated),TGI,HOP-18 NSCLC,> 90 µM
same,TGI,RPMI-8226 leukemia,39.8 µM
same,TGI,KM20L2 colon,83.2 µM
same,TGI,LXFL 529 NSCLC,36.9 µM
same,TGI,SNB-75 CNS,> 90 µM
same,TGI,OVCAR-5 ovarian,> 9 µM
same,TGI,SK-MEL-2 melanoma,> 90 µM
same,TGI,SNB-78 CNS,81.6 µM
same,TGI,TK-10 renal,> 90 µM
same,TGI,CAKI-1 renal,41.9 µM
same,TGI,DMS 114 small cell lung,36 µM
same,TGI,SF-539 CNS,> 90 µM
same,TGI,DMS 273 small cell lung,38.6 µM
same,TGI,K-562 leukemia,42.3 µM
same,TGI,M19-MEL melanoma,27.4 µM
same,TGI,DLD-1 colon,43.9 µM
CCCN(CCC)C(=O)Cc1c2n(c3ccccc13)CCCc1ccccc1-2,TGI,HOP-18 NSCLC,30.3 µM
same,TGI,RPMI-8226 leukemia,37.6 µM
same,TGI,KM20L2 colon,27.9 µM
same,TGI,LXFL 529 NSCLC,26.6 µM
same,TGI,SNB-75 CNS,24.4 µM
same,TGI,SK-MEL-2 melanoma,25.8 µM
same,TGI,SNB-78 CNS,27.6 µM
same,TGI,TK-10 renal,29.5 µM
same,TGI,CAKI-1 renal,28.4 µM
same,TGI,XF 498 CNS,28.8 µM
same,TGI,DMS 114 small cell lung,24.1 µM
same,TGI,SF-539 CNS,28.6 µM
same,TGI,DMS 273 small cell lung,23.2 µM
same,TGI,K-562 leukemia,37.4 µM
same,TGI,M19-MEL melanoma,29.5 µM
same,TGI,DLD-1 colon,26.5 µM
